{"source": "patent US6462089B1", "about": "“Method for correcting the vigilance disorders associated with myopathies” (priority 2000, dated 2002)", "key": {"c-fos proto-oncogene": {"test_system": "c-fos proto-oncogene", "settings": "cats, awakening doses; Lin et al. PNAS 1996; cited from earlier work"}, "[1]": {"test_system": "patients suffering from Steinert's disease (myotonic dystrophy)", "settings": "cited from earlier work"}, "[2]": {"test_system": "patients suffering from Steinert's disease", "test": "Karolinska KSS somnolence scale in patients suffering from Steinert's disease", "assay_type": "in vivo, human", "source_text": "In the second patient of this series, the telling morphotype and a myotony of both hands associated with muscular deficiency existed. Without treatment, diurnal hypersomnia was very pronounced (Epworth scale: 16)."}, "[3]": {"test_system": "patients suffering from myotonic dystrophy", "test": "Oral modafinil treatment of a series of patients with myotonic dystrophy and diurnal hypersomnia, subjective effect", "assay_type": "in vivo, human", "settings": "oral doses of between 100 and 400 mg/day; majority of patients"}, "[4]": {"settings": "cited from earlier work"}, "[5]": {"test_system": "patient suffering from Steinert's disease", "test": "Epworth somnolence scale in a patient suffering from Steinert's disease", "assay_type": "in vivo, human", "settings": "score before treatment 20", "procedure": "By way of example, in a patient suffering from Steinert's disease, which is characterized, inter alia, by a temporal atrophy, ptosis, a myotony associated with muscle weakness, behavioural disorders and somnolence (the start of which went back to 1988) with sleep paralyses, without hypnogogic hallucinations or attacks of cataplexy, a decrease was observed of 18 units on the Epworth somnolence scale (see Johns M. W. Sleep, 1991, 14, 540) after treatment with an oral dose of 100 mg per day of modafinil for six months, between February 1999 (score on the Epworth scale=20) and August 1999 (score on the Epworth scale=2)."}, "dopamine": {"test_system": "dopamine", "settings": "within the dose ranges which modify consciousness; cited from earlier work"}}}
{"smiles": "C[C@H](N)Cc1ccccc1", "note": "[d-amphetamine]", "values": [{"measurement": "expression of c-fos proto-oncogene in the central dopaminergic projection zones (including the cortex)", "setting": "c-fos proto-oncogene", "value": "highly expressed"}]}
{"smiles": "COC(=O)C(c1ccccc1)C1CCCCN1", "note": "(stereo not shown) [methylphenidate]", "values": [{"measurement": "level of consciousness", "setting": "[1]; Van der Meché et al. 1986", "value": "improvement in the level of consciousness was observed"}, {"measurement": "expression of c-fos proto-oncogene in the central dopaminergic projection zones (including the cortex)", "setting": "c-fos proto-oncogene", "value": "highly expressed"}]}
{"smiles": "NC(=O)C[S+]([O-])C(c1ccccc1)c1ccccc1", "note": "(stereo not shown) [modafinil, benzhydrylsulphinylacetamide]", "values": [{"measurement": "personal and professional daily life", "setting": "[2]; patient, dose 200 mg/day", "value": "considerable improvement"}, {"measurement": "somnolence score on the Karolinska KSS scale after treatment", "setting": "[2]; patient, dose 200 mg/day, before: 8", "value": 2}, {"measurement": "diurnal somnolence attacks", "setting": "[2]; second patient, dose 600 mg/day", "value": "partial resolution"}, {"measurement": "somnolence score on the Karolinska scale after treatment", "setting": "[2]; second patient, dose 600 mg/day, before: 8", "value": 4}, {"measurement": "expression of c-fos proto-oncogene in the central dopaminergic projection zones (including the cortex)", "setting": "c-fos proto-oncogene", "value": "not expressed"}, {"measurement": "effect of treatment on vigilance disorders and diurnal somnolence", "setting": "[3]", "value": "subjectively effective"}, {"measurement": "generalization of the effects with amphetamine", "setting": "[4]; addictive substance discrimination tests", "value": "very weak"}, {"measurement": "self-administration and preference of place", "setting": "[4]; in vivo", "value": "leads neither to self-administration nor to preference of place"}, {"measurement": "self-administration of cocaine", "setting": "[4]; in vivo", "value": "does not modify"}, {"measurement": "score on the Epworth scale after treatment", "setting": "[5]; oral dose of 100 mg per day for six months (August 1999)", "value": 2}, {"measurement": "decrease on the Epworth somnolence scale", "setting": "[5]; oral dose of 100 mg per day for six months", "value": 18, "unit": "units"}, {"measurement": "effect on dopamine", "setting": "dopamine", "value": "no effect"}]}
{"smiles": "C#CCN(C)[C@H](C)Cc1ccccc1", "note": "[selegiline]", "values": [{"measurement": "effectiveness on diurnal hypersomnolence", "setting": "[1]; dose of 20 mg/day, Antonini et al. 1997", "value": "ineffective"}]}
